Source: patent US20080113938A1, “ACCELERATOR FOR MINERAL ABSORPTION AND USE THEREOF” (KABUSHIKI KAISHA HAYASHIBARA SEIBUTSU KAGAKU KENKYUJO, priority 2003, published 2008)
Marks after values point to notes of the source that are not given here.

Test system: absorption of calcium, magnesium, phosphorus and iron in alimentary canal
Experiment: Mineral amounts and absorption percentages in alimentary canal contents and excrement of rats
Assay type: in vivo, Wister rats
Excerpt: Forty of Wister rats weighing 110 to 120 g (five-weeks aged male, commercialized by Charles River Japan Inc., Yokohama, Japan) were bred with a feed containing ingredients (%) shown in Table 1 for one week in order to be familiarized. The familiarized rats were randomly divided into four groups with ten rats each. Each group was experimentally bred for eight weeks with either a feed without cyclic tetrasaccharide shown in Table 1 (hereinafter, it is called as “basic feed”), or another feed of basic feed supplemented with 1%, 2% or 5% on a dry solid basis, of cyclic tetrasaccharide in a crystalline anhydrous powder form with a purity of 99.5%, prepared in the following Example A-3. These basic feed and three kinds of feeds with cyclic tetrasaccharide were prepared to contain 44.75% of the total amount of cyclic tetrasaccharide and corn starch in each feed. From one week before the end of the breeding test, in order to determine the metabolism of calcium, magnesium, iron, sodium, potassium and phosphorus (hereinafter, may be called “minerals” in all), rats in the all groups were fed with the four types of feeds supplemented with 0.5% of chromium oxide as a non-absorbed marker for the minerals. The rats were bred at 25° C. in a manner of freely allowing to take feeds and water under a condition of 12 hours regular interval between of light and shade. After completion of experimental breeding, all rats were individually weighed to calculate the average of weight and further calculate the rate of increased weight for each group.
Two days before the end of the breeding test, rats were placed into a gauge for measuring metabolism to collect their excrement in two days. The resulting excrement was subjected to the measurement of the contents of cyclic tetrasaccharide, each mineral, and chromium. After the breeding test, the rats were anatomized in an anesthetized condition to take out their alimentary canals including jejunum, intestinum ileum, appendix and colon/rectum. After the resulting alimentary canals were weighed, their contents were also weighed and subjected to the measurement of the amount of cyclic tetrasaccharide, minerals and chromium. The rats, which had been taken out their alimentary canals, were dislocated at their cervical vertebrae and taken out their femurs from right legs. The resulting femurs were subjected to the measurement of the amount of ashes, calcium, magnesium and phosphorus. The following(s) explain the methods of quantitative analysis of cyclic tetrasaccharide and the methods of measurement of minerals and chromium.
Two grams of a feed was preciously weighed in a porcelain crucible, heated to carbonize, and heated at 600° C. to incinerate. After weighed, the resulting test samples were admixed with hydrochloric acid in a precious analysis grade (concentration of 20%, commercialized by Wako Pure Chemicals, Co., Ltd., Osaka, Japan) to give a final concentration of 1%. They were subjected to atomic absorption spectrometry (“Zeeman5100™”, commercialized by PerkinElmer); in the case of measurement of chromium, they were subjected to a flameless type one. In the case of measurement of phosphorus, they were subjected to usual molybdenum blue absorptiometry. On the other hand, 0.1 g of each of the contents of jejunum, intestinum ileum, appendix, colon/rectum, and excrement was subjected to wet-type incineration to prepare test samples similarly as in the above case of feed, and the test samples were quantified. The right femurs taken out from the anatomized rats were dried at 105° C. for 15 hours and measured as a dry weight. The resulting dried femurs were precisely weighed in a porcelain crucible, and incinerated similarly as in the case of the feed. The resultants were weighed and quantified for calcium, magnesium and phosphorus.

[1] = feed supplemented with 1% cyclic tetrasaccharide
[2] = feed supplemented with 2% cyclic tetrasaccharide
[3] = feed supplemented with 5% cyclic tetrasaccharide

OC[C@H]1O[C@@H]2OC[C@H]3O[C@H](O[C@@H]4[C@@H](O)[C@@H](OC[C@H]5O[C@H](O[C@H]([C@H]2O)[C@@H]1O)[C@H](O)[C@@H](O)[C@@H]5O)O[C@H](CO)[C@H]4O)[C@H](O)[C@@H](O)[C@@H]3O [cyclic tetrasaccharide, cyclo{>6)-α-D-glucopyranosyl-(1>3)-α-D-glucopyranosyl-(1>6)-α-D-glucopyranosyl-(1>3)-α-D-glucopyranosyl-(1>}]
absorption rates of calcium, magnesium, phosphorus and iron in intestinum ileum and lower alimentary canal (against basic feed, 1%, 2%, 5% feeds): significantly increased in a dose-dependent manner | Absorption percentage of calcium, appendix [1]: (83) % | Absorption percentage of calcium, colon/rectum [1]: (86) % | Absorption percentage of calcium, excrement [1]: (88) % | Absorption percentage of calcium, intestinum ileum [1]: (79) % | Absorption percentage of iron, appendix [1]: (74) % | Absorption percentage of iron, colon/rectum [1]: (80) % | Absorption percentage of iron, excrement [1]: (85) % | Absorption percentage of iron, intestinum ileum [1]: (67) % | Absorption percentage of magnesium, appendix [1]: (84) % | Absorption percentage of magnesium, colon/rectum [1]: (86) % | Absorption percentage of magnesium, excrement [1]: (88) % | Absorption percentage of magnesium, intestinum ileum [1]: (80) % | Absorption percentage of phosphorus, appendix [1]: (88) % | Absorption percentage of phosphorus, colon/rectum [1]: (92) % | Absorption percentage of phosphorus, excrement [1]: (95) % | Absorption percentage of phosphorus, intestinum ileum [1]: (84) % | Amount of Phosphorus, content of appendix [1]: 5.39 * mg/g | Amount of Phosphorus, content of colon/rectum [1]: 5.18 * mg/g | Amount of Phosphorus, content of intestinum ileum [1]: 3.45 * mg/g | Amount of Phosphorus, excrement [1]: 17.74 * mg/g | Amount of calcium, content of appendix [1]: 10.56 * mg/g | Amount of calcium, content of colon/rectum [1]: 9.83 * mg/g | Amount of calcium, content of intestinum ileum [1]: 6.02 * mg/g | Amount of calcium, excrement [1]: 54.29 * mg/g | Amount of iron, content of appendix [1]: 0.16 * mg/g | Amount of iron, content of colon/rectum [1]: 0.14 * mg/g | Amount of iron, content of intestinum ileum [1]: 0.10 * mg/g | Amount of iron, excrement [1]: 0.71 * mg/g | Amount of magnesium, content of appendix [1]: 2.24 * mg/g | Amount of magnesium, content of colon/rectum [1]: 2.17 * mg/g | Amount of magnesium, content of intestinum ileum [1]: 1.30 * mg/g | Amount of magnesium, excrement [1]: 12.06 * mg/g | Absorption percentage of calcium, appendix [2]: (88) % | Absorption percentage of calcium, colon/rectum [2]: (90) % | Absorption percentage of calcium, excrement [2]: (92) % | Absorption percentage of calcium, intestinum ileum [2]: (84) % | Absorption percentage of iron, appendix [2]: (77) % | Absorption percentage of iron, colon/rectum [2]: (83) % | Absorption percentage of iron, excrement [2]: (88) % | Absorption percentage of iron, intestinum ileum [2]: (67) % | Absorption percentage of magnesium, appendix [2]: (86) % | Absorption percentage of magnesium, colon/rectum [2]: (88) % | Absorption percentage of magnesium, excrement [2]: (90) % | Absorption percentage of magnesium, intestinum ileum [2]: (80) % | Absorption percentage of phosphorus, appendix [2]: (92) % | Absorption percentage of phosphorus, colon/rectum [2]: (94) % | Absorption percentage of phosphorus, excrement [2]: (97) % | Absorption percentage of phosphorus, intestinum ileum [2]: (87) % | Amount of Phosphorus, content of appendix [2]: 5.35 * mg/g | Amount of Phosphorus, content of colon/rectum [2]: 4.10 * mg/g | Amount of Phosphorus, content of intestinum ileum [2]: 4.17 * mg/g | Amount of Phosphorus, excrement [2]: 10.27 * mg/g | Amount of calcium, content of appendix [2]: 8.98 * mg/g | Amount of calcium, content of colon/rectum [2]: 7.45 * mg/g | Amount of calcium, content of intestinum ileum [2]: 5.61 * mg/g | Amount of calcium, excrement [2]: 28.62 * mg/g | Amount of iron, content of appendix [2]: 0.18 * mg/g | Amount of iron, content of colon/rectum [2]: 0.14 * mg/g | Amount of iron, content of intestinum ileum [2]: 0.12 * mg/g | Amount of iron, excrement [2]: 0.49 * mg/g | Amount of magnesium, content of appendix [2]: 2.40 * mg/g | Amount of magnesium, content of colon/rectum [2]: 2.09 * mg/g | Amount of magnesium, content of intestinum ileum [2]: 1.61 * mg/g | Amount of magnesium, excrement [2]: 9.21 * mg/g | Absorption percentage of calcium, appendix [3]: (93) % | Absorption percentage of calcium, colon/rectum [3]: (94) % | Absorption percentage of calcium, excrement [3]: (94) % | Absorption percentage of calcium, intestinum ileum [3]: (89) % | Absorption percentage of iron, appendix [3]: (78) % | Absorption percentage of iron, colon/rectum [3]: (84) % | Absorption percentage of iron, excrement [3]: (89) % | Absorption percentage of iron, intestinum ileum [3]: (69) % | Absorption percentage of magnesium, appendix [3]: (88) % | Absorption percentage of magnesium, colon/rectum [3]: (91) % | Absorption percentage of magnesium, excrement [3]: (93) % | Absorption percentage of magnesium, intestinum ileum [3]: (84) % | Absorption percentage of phosphorus, appendix [3]: (93) % | Absorption percentage of phosphorus, colon/rectum [3]: (94) % | Absorption percentage of phosphorus, excrement [3]: (97) % | Absorption percentage of phosphorus, intestinum ileum [3]: (87) % | Amount of Phosphorus, content of appendix [3]: 3.43 * mg/g | Amount of Phosphorus, content of colon/rectum [3]: 3.06 * mg/g | Amount of Phosphorus, content of intestinum ileum [3]: 2.84 * mg/g | Amount of Phosphorus, excrement [3]: 8.98 * mg/g | Amount of calcium, content of appendix [3]: 4.99 * mg/g | Amount of calcium, content of colon/rectum [3]: 5.00 * mg/g | Amount of calcium, content of intestinum ileum [3]: 3.48 * mg/g | Amount of calcium, excrement [3]: 26.47 * mg/g | Amount of iron, content of appendix [3]: 0.19 * mg/g | Amount of iron, content of colon/rectum [3]: 0.13 * mg/g | Amount of iron, content of intestinum ileum [3]: 0.10 * mg/g | Amount of iron, excrement [3]: 0.66 * mg/g | Amount of magnesium, content of appendix [3]: 2.03 * mg/g | Amount of magnesium, content of colon/rectum [3]: 1.55 * mg/g | Amount of magnesium, content of intestinum ileum [3]: 1.04 * mg/g | Amount of magnesium, excrement [3]: 8.37 * mg/g
